Measured values: patent US20250026721A1, “COMPOUNDS AND METHODS FOR MODULATING RAS-PI3K” (Vividion Therapeutics, Inc., priority 2023, published 2025)

Each compound was assayed against T1, PIK3CA (Homo sapiens, UniProt P42336) (assay: In vitro ELISA target engagement assay for PIK3CA in Jurkat cellular lysate (competition with PIK3CA Biotin Probe)). Settings: 1 hour at rt, then 500 nM PIK3CA Biotin Probe, read-out: Elisa Target Engagement Assay (TE50).
T1 construct: endogenous in cells; host or cells: Jurkat cell lysate
T1 sequence (P42336 whole entry): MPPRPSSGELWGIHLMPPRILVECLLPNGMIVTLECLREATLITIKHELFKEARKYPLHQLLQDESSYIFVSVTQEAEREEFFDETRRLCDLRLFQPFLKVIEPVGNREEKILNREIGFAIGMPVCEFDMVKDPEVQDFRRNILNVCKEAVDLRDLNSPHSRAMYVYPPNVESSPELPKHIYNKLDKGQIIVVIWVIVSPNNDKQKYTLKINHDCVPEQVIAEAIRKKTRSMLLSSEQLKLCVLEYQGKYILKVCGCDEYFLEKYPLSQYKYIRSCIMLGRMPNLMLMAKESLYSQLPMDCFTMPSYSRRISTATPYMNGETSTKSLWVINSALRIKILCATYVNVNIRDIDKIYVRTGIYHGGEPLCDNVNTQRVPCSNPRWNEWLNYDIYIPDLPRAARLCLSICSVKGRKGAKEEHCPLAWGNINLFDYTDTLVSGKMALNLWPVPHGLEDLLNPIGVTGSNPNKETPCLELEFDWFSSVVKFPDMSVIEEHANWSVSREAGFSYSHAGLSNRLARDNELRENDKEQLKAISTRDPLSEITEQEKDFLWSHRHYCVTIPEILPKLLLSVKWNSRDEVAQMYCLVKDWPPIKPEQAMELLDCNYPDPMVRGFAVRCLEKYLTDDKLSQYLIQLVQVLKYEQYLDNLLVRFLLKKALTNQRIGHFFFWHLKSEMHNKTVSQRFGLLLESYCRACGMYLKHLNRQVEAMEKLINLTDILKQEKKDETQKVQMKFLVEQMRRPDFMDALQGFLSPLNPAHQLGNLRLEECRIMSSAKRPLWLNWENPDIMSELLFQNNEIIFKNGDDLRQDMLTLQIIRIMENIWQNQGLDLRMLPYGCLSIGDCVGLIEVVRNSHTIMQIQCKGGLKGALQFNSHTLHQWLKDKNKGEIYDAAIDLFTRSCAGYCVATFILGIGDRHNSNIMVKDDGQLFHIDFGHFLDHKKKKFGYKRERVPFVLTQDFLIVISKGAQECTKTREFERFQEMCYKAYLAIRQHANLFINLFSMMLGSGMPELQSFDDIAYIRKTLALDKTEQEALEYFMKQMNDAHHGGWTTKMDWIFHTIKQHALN
T1 sequence (P27986 whole entry partner): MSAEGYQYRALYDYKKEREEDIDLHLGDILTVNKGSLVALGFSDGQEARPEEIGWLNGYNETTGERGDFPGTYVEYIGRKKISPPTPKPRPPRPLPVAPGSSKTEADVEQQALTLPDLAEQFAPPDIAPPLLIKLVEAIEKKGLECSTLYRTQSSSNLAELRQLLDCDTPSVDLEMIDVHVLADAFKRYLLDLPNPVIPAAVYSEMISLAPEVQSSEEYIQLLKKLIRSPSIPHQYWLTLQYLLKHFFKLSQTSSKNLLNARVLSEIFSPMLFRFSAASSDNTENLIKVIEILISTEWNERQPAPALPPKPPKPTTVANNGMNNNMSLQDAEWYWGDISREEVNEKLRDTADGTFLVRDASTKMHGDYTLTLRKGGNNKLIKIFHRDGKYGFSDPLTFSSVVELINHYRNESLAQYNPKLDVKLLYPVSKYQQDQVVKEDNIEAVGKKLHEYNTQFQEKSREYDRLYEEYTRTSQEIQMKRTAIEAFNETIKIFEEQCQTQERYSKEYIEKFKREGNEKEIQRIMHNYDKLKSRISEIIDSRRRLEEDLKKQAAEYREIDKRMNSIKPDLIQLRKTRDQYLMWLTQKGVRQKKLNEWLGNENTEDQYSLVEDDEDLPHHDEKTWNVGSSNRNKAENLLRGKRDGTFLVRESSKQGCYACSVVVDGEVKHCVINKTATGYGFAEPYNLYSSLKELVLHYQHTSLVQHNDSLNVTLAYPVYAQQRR
Format: binding
Experimental: Example 3. In Vitro ELISA Target Engagement Assay for […] Engagement of compounds on PIK3CA were assessed in Jurkat cellular lysate via a sandwich ELISA. A solution of PIK3CA Biotin Probe was generated at 10 mM and used in the biological testing. […] Treatment Protocol: Jurkat cellular lysate was generated from frozen cell pellets. Cells were thawed on ice and resuspended in cold Dulbecco's phosphate buffered saline (DPBS) (12 mL/300 e^6 cells) then lysed by probe sonication (12×3 second pulses). Jurkat lysate was plated (50 μl/well) in Armadillo 96 well PCR plates (Thermo Fisher catalog number AB2396). The lysate was treated with serial dilutions of test compounds up to 200 μM and incubated for 1 hour at rt. Following compound incubation, PIK3CA Biotin Probe was added to a final concentration of 500 nM, and lysate was mixed by pipetting gently and incubated for an additional 1 hour at rt. The mixture was then diluted in 75 μL Dilution buffer. The mixture was centrifuged for 5 minutes at 4122 g and stored at −80° C. until ELISA TE detection. ELISA TE Detection: Quantification of PIK3CA TE was initiated by coating of the ELISA plate (Thermo Scientific White 384-Well Immuno plates; Thermo Fisher catalog number 460372). The capture antibody was diluted in plating buffer (1:83) and added to the ELISA plate, 20 μl/well, overnight at 4° C. The plate was then washed twice with PBST, 100 μl/well, and blocked with addition of blocking buffer (100 μl/well, 1 hour at rt). During block, treated and probe labeled lysate was thawed. After Block, the block buffer was removed and the thawed lysate was added to the ELISA plate, 30 μl/well, for 1.5 hours at rt. Following lysate incubation, the assay plate was washed 3 times with PBST, 100 μl/well. The Neutravidin-HRP was then diluted (1:500 in dilution buffer) and added for 1 hour at rt, 20 μl/well. Following incubation, the assay plate was washed 4 times with PBST, 100 μl/well, HRP substrate was added to plate, 20 μl/well and luminescence signal was read (Clariostar Plate Reader). For each compound the potency of target engagement (TE50) was determined using Graphpad Prism.

SMILES | IC50 [nM]
C[C@H](/C=C/C(=O)N1CC(F)(F)C1)NC(=O)[C@]1(F)CCN(S(=O)(=O)c2cnc(C(F)(F)F)cc2-c2ccccc2Cl)[C@H](C)C1 [Compound 215, (2R,4S)-1-((4-(2-chlorophenyl)-6-(trifluoromethyl)pyridin-3-yl)sulfonyl)-N-((R,E)-5-(3,3-difluoroazetidin-1-yl)-5-oxopent-3-en-2-yl)-4-fluoro-2-methylpiperidine-4-carboxamide] | 490
C[C@H](/C=C\S(C)(=O)=O)NC(=O)C1(F)CCN(S(=O)(=O)c2ccc(Br)cc2-c2cccc(Cl)c2)CC1 [Compound 55, (R,Z)-1-((5-bromo-3′-chloro-[1,1′-biphenyl]-2-yl)sulfonyl)-4-fluoro-N-(4-(methylsulfonyl)but-3-en-2-yl)piperidine-4-carboxamide] | 710
C=C(C#N)CNC(=O)C1(F)CCN(S(=O)(=O)c2ccc(Br)cc2-c2ccccc2Cl)CC1 [Compound 72, 1-((5-bromo-2′-chloro-[1,1′-biphenyl]-2-yl)sulfonyl)-N-(2-cyanoallyl)-4-fluoropiperidine-4-carboxamide] | 670
C[C@@H](/C=C/S(=O)(=O)C1CNC1)NC(=O)C1(F)CCN(S(=O)(=O)c2ccc(Br)cc2-c2ccccc2Cl)CC1 [Compound 75, (S,E)-N-(4-(azetidin-3-ylsulfonyl)but-3-en-2-yl)-1-((5-bromo-2′-chloro-[1,1′-biphenyl]-2-yl)sulfonyl)-4-fluoropiperidine-4-carboxamide] | 140
Cc1cccc(Cl)c1-c1cc(Br)ccc1S(=O)(=O)N1CCC(F)(C(=O)N[C@H](C)/C=C\S(C)(=O)=O)CC1 [Compound 60, 1-((5-bromo-2′-chloro-6′-methyl-[1,1′-biphenyl]-2-yl)sulfonyl)-4-fluoro-N-((R,Z)-4-(methylsulfonyl)but-3-en-2-yl)piperidine-4-carboxamide] | 810
Cc1cccc(-c2cc(Br)ccc2S(=O)(=O)N2CCC(F)(C(=O)N[C@H](C)/C=C\S(C)(=O)=O)CC2)c1Cl [Compound 59, (R,Z)-1-((5-bromo-2′-chloro-3′-methyl-[1,1′-biphenyl]-2-yl)sulfonyl)-4-fluoro-N-(4-(methylsulfonyl)but-3-en-2-yl)piperidine-4-carboxamide] | 710
C[C@H](/C=C\S(C)(=O)=O)NC(=O)C1(F)CCN(C(=O)[C@H]2CCN(C(=O)OC(C)(C)C)C[C@H]2c2ccccc2Cl)CC1 (relative stereo) [Compound 259, tert-butyl (3*R,4*S)-3-(2-chlorophenyl)-4-(4-fluoro-4-(((R,Z)-4-(methylsulfonyl)but-3-en-2-yl)carbamoyl)piperidine-1-carbonyl)piperidine-1-carboxylate] | 660
C[C@H](/C=C\S(C)(=O)=O)NC(=O)[C@]1(F)CCCN(S(=O)(=O)c2ccc(C(F)(F)F)cc2-c2ccccc2Cl)CC1 [Compound 311, (S)-1-((2′-chloro-5-(trifluoromethyl)-[1,1′-biphenyl]-2-yl)sulfonyl)-4-fluoro-N-((R,Z)-4-(methylsulfonyl)but-3-en-2-yl)azepane-4-carboxamide] | 820
COCCc1cccc(-c2cc(Cl)ccc2S(=O)(=O)N2CCC(F)(C(=O)N[C@@H](C)/C=C\S(C)(=O)=O)CC2)c1 [Compound 125, (S,Z)-1-((5-chloro-3′-(2-methoxyethyl)-[1,1′-biphenyl]-2-yl)sulfonyl)-4-fluoro-N-(4-(methylsulfonyl)but-3-en-2-yl)piperidine-4-carboxamide] | 610
O=C(NC1C=CS(=O)(=O)C1)C1(F)CCN(S(=O)(=O)c2ccc(Br)cc2-c2ccccc2Cl)CC1 (racemic) [Compound 65, rac-1-((5-bromo-2′-chloro-[1,1′-biphenyl]-2-yl)sulfonyl)-N-(1,1-dioxido-2,3-dihydrothiophen-3-yl)-4-fluoropiperidine-4-carboxamide] | 54
COc1ccc(S(=O)(=O)N2CCC[C@@](F)(C(=O)N[C@H](C)/C=C\S(C)(=O)=O)CC2)c(-c2ccccc2Cl)c1 [Compound 313, (S)-1-((2′-chloro-5-methoxy-[1,1′-biphenyl]-2-yl)sulfonyl)-4-fluoro-N-((R,Z)-4-(methylsulfonyl)but-3-en-2-yl)azepane-4-carboxamide] | 530
C[C@H](/C=C/S(=O)(=O)C1CNC1)NC(=O)C1(F)CCN(S(=O)(=O)c2ccc(Br)cc2-c2ccccc2Cl)CC1 [Compound 76, (R,E)-N-(4-(azetidin-3-ylsulfonyl)but-3-en-2-yl)-1-((5-bromo-2′-chloro-[1,1′-biphenyl]-2-yl)sulfonyl)-4-fluoropiperidine-4-carboxamide] | 32
C[C@H](/C=C\S(C)(=O)=O)NC(=O)C1(F)CCN(S(=O)(=O)c2ccc(CO)cc2-c2ccccc2Cl)CC1 [Compound 130, (R,Z)-1-((2′-chloro-5-(hydroxymethyl)-[1,1′-biphenyl]-2-yl)sulfonyl)-4-fluoro-N-(4-(methylsulfonyl)but-3-en-2-yl)piperidine-4-carboxamide] | 470
C[C@H](/C=C\S(C)(=O)=O)NC(=O)C1(F)CCN(S(=O)(=O)c2ccc(Br)cc2-c2ccccc2)CC1 [Compound 57, (R,Z)-1-((5-bromo-[1,1′-biphenyl]-2-yl)sulfonyl)-4-fluoro-N-(4-(methylsulfonyl)but-3-en-2-yl)piperidine-4-carboxamide] | 580
C[C@@H]1C[C@](F)(C(=O)NC/C=C\C(=O)N2CC(F)(F)C2)CCN1S(=O)(=O)c1ccc(C#N)cc1-c1ccccc1Cl [Compound 292, (2R,4S)-1-((2′-chloro-5-cyano-[1,1′-biphenyl]-2-yl)sulfonyl)-N-((Z)-4-(3,3-difluoroazetidin-1-yl)-4-oxobut-2-en-1-yl)-4-fluoro-2-methylpiperidine-4-carboxamide] | 160
CCOC(=O)N1C[C@H](C(=O)N2CCC(F)(C(=O)N[C@H](C)/C=C\S(C)(=O)=O)CC2)[C@H](c2ccccc2Cl)C1 [Compound 160, ethyl (3R,4R)-3-(2-chlorophenyl)-4-(4-fluoro-4-(((R,Z)-4-(methylsulfonyl)but-3-en-2-yl)carbamoyl)piperidine-1-carbonyl)pyrrolidine-1-carboxylate] | 670
O=C(N[C@H]1C=CS(=O)(=O)C1)C1(F)CCN(S(=O)(=O)c2ccc(Br)cc2-c2ccccc2Cl)CC1 [Compound 67, (S)-1-((5-bromo-2′-chloro-[1,1′-biphenyl]-2-yl)sulfonyl)-N-(1,1-dioxido-2,3-dihydrothiophen-3-yl)-4-fluoropiperidine-4-carboxamide] | 95.6
Cc1ccc(-c2cc(Br)ccc2S(=O)(=O)N2CCC(F)(C(=O)N[C@H](C)/C=C\S(C)(=O)=O)CC2)c(Cl)c1 [Compound 53, (R,Z)-1-((5-bromo-2′-chloro-4′-methyl-[1,1′-biphenyl]-2-yl)sulfonyl)-4-fluoro-N-(4-(methylsulfonyl)but-3-en-2-yl)piperidine-4-carboxamide] | 960
C[C@@H](NC(=O)C1(F)CCN(S(=O)(=O)c2ccc(C(F)(F)F)cc2-c2ccccc2Cl)CC1)C1=CS(=O)(=O)C1 [Compound 236, (R)-1-((2′-chloro-5-(trifluoromethyl)-[1,1′-biphenyl]-2-yl)sulfonyl)-N-(1-(1,1-dioxido-2H-thiet-3-yl)ethyl)-4-fluoropiperidine-4-carboxamide] | 390
COc1ccc(S(=O)(=O)N2CCC(F)(C(=O)N[C@H](C)C3=CS(=O)(=O)C3)CC2)c(-c2ccccc2Cl)c1 [Compound 235, (R)-1-((2′-chloro-5-methoxy-[1,1′-biphenyl]-2-yl)sulfonyl)-N-(1-(1,1-dioxido-2H-thiet-3-yl)ethyl)-4-fluoropiperidine-4-carboxamide] | 370
CC(O)c1ccc(S(=O)(=O)N2CCC(F)(C(=O)N[C@H](C)/C=C\S(C)(=O)=O)CC2)c(-c2ccccc2Cl)c1 (stereo partly drawn) [Compound 129, 1-((2′-chloro-5-(1-hydroxyethyl)-[1,1′-biphenyl]-2-yl)sulfonyl)-4-fluoro-N-((R,Z)-4-(methylsulfonyl)but-3-en-2-yl)piperidine-4-carboxamide] | 440
C[C@H](/C=C\S(C)(=O)=O)NC(=O)C1(F)CCN(C(=O)C2CCN(C(=O)OC(C)(C)C)C=C2c2ccccc2Cl)CC1 (stereo partly drawn) [Compound 258, tert-butyl 5-(2-chlorophenyl)-4-(4-fluoro-4-(((R,Z)-4-(methylsulfonyl)but-3-en-2-yl)carbamoyl)piperidine-1-carbonyl)-3,4-dihydropyridine-1(2H)-carboxylate] | 883
C[C@H](/C=C\S(C)(=O)=O)NC(=O)C1(F)CCN(C(=O)[C@H]2COC(C)(C)C[C@@H]2c2ccccc2Cl)CC1 (racemic) [Compound 256, 1-((3*R,4*S)-4-(2-chlorophenyl)-6,6-dimethyltetrahydro-2H-pyran-3-carbonyl)-4-fluoro-N-((R,Z)-4-(methylsulfonyl)but-3-en-2-yl)piperidine-4-carboxamide] | 780
